# Reference: ChEMBL document CHEMBL1201862, “PubChem BioAssay data set” (2004)
# Active and inactive are the calls of the source.
# What was measured:
# [1] = molecular target: Peroxisome proliferator-activated receptor gamma/Nuclear receptor coactivator 3 (Homo sapiens, UniProt P37231); format: functional;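 further: agonist potency for raising coactivator recruitment to the receptor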
# [2] = molecular target: Peroxisome proliferator-activated receptor gamma/Nuclear receptor coactivator 2 (Homo sapiens, UniProt P37231); format: functional;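 further: agonist potency for raising coactivator recruitment to the receptor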
# [3] = molecular target: Peroxisome proliferator-activated receptor gamma/Nuclear receptor coactivator 1 (Homo sapiens, UniProt P37231); format: functional;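 further: agonist potency as compounds enhance coactivator SRC-1 recruitment to PPARgamma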
# BJ [4] = assay: BJ-TERT fibroblast viability loss – cell-based, RAS-independent, luminescence, dose response (AID 1933); format: functional; settings: Homo sapiens
# HEK293 [5] = assay: inhibition of NOD1-driven NF-kB reporter – cell-based, luminescence, uHTS, primary screen (AID 1578); format: functional; settings: Homo sapiens
# HEK293 [6] = assay: cells; format: functional, cell-based; settings: Homo sapiens
# HEK293 [7] = assay: cells; format: functional, cell-based; settings: Homo sapiens; remark: listed apart in the source
# [8] = DRD fibroblast viability loss – cell-based, non-viral oncogenic, luminescence, dose response (AID 1934); format: functional; settings: Homo sapiens
# BJ [9] = assay: cells; format: functional, cell-based; settings: Homo sapiens
# [10] = NIH3T3 cell viability loss – ATP luminescence, mouse fibroblasts, counter-screen, dose response (AID 2010); format: functional, cell-based;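 further: cells exposed to compound for about 90 hours before reading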
# [11] = molecular target: Nucleotide-binding oligomerization domain-containing protein 2 (Homo sapiens, UniProt Q9HC29); assay: inhibition of NOD2-driven NF-kB reporter – cell-based, luminescence, uHTS, HEK293 (AID 1566); format: functional
# HEK293 [12] = assay: NOD2 signaling inhibitors in MDP-stimulated cells, cell-based, uHTS, luminescence (AID 2001); format: functional; settings: Homo sapiens
# HEK293 [13] = assay: cells; format: functional, cell-based; settings: Homo sapiens; remark: listed apart in the source
# [14] = Trypanosoma cruzi growth suppression in host cells – NIH3T3 host cells, beta-gal luminescence, confirmation (AID 2044); format: functional, cell-based;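 further: intracellular parasites grown in NIH/3T3 mouse fibroblasts as host cells; luminescent beta-galactosidase reporter signal from transgenic T. cruzi replicating inside host cells; inhibitors lower the luminescence signal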
# BJ [15] = assay: BJ-TERT-LT-ST fibroblast viability loss – cell-based, RAS-independent, luminescence, dose response (AID 1935); format: functional; settings: Homo sapiens;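 further: BJ fibroblasts immortalized with TERT plus LT and ST oncogenes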
# H4 = assay: Luminescence Cell-Based Dose Response HTS to Identify Activators of 5'UTR Stem-Loop Driven Prion Protein mRNA Translation in H4 Neuroglioblastoma Cells. [Related pubchem assays: 1829 (Project Summary), 1814 (Primary HTS)]; format: functional; settings: Homo sapiens
# [16] = Luminescence Cell-Based Dose Response to Identify Activators of 5'UTR Stem-Loop Driven Prion Protein mRNA Translation in H4-C Neuroglioblastoma Cells. [Related pubchem assays: 1829 (Project Summary), 1814 (Primary HTS)]; format: functional
# [17] = Luminescence Cell-Based Dose Response to Identify Activators of Luciferase Translation or Activity in H4-C Neuroglioblastoma Cells. [Related pubchem assays: 1829 (Project Summary), 1814 (Primary HTS)]; format: functional
# [18] = Luminescence Cell-Based Dose Response HTS to Identify Activators of Luciferase Translation or Activity in H4 […] Cells. [Related pubchem assays: 1829 (Project Summary), 1814 (Primary HTS)]; format: functional
# [19] = molecular target: FAD-linked sulfhydryl oxidase ALR (Homo sapiens, UniProt P55789); assay: ALR-catalysed DTT oxidation blockers – biochemical, H2O2 detection, luminescence, cherry-pick, dose response (AID 493248)
# [20] = Luminescence Cell-Based Dose Confirmation to Identify Activators of 5'UTR Stem-Loop Driven Alpha-Synuclein mRNA Translation in H4 Neuroglioblastoma Cells. [Related pubchem assays: 1829 (Project Summary), 1814 (Primary HTS)]; format: functional
# [21] = Luminescence Cell-Based Dose Confirmation HTS to Identify Activators of 5'UTR Stem-Loop Driven Alpha-Synuclein mRNA Translation in H4 Neuroglioblastoma Cells. [Related pubchem assays: 1829 (Project Summary), 1814 (Primary HTS)]; format: functional
# [22] = molecular target: T1, Calpain-2 catalytic subunit (Sus scrofa, UniProt P43367); assay: m-calpain protease blockers, concentration series – biochemical, fluorogenic peptide substrate, dose response (AID 1420); format: functional
# T1 sequence (P43367 whole entry): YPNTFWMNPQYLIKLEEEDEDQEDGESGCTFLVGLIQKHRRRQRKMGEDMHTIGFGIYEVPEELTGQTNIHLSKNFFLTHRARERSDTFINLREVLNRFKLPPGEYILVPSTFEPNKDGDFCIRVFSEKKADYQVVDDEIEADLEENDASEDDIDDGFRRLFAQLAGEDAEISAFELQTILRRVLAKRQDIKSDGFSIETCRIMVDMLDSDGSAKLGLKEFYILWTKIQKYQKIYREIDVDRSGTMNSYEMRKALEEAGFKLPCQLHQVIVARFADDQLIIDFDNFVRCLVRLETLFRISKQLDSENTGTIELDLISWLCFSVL
# INS1 = assay: INS-1E survival protection against cytokine death – cell-based, luminescence, retest, dose response (AID 449756); format: functional; settings: Rattus norvegicus;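 further: cell death triggered by IL-1 beta plus TNF-alpha plus IFN-gamma mixture; protective hits raise ATP signal compared with cytokine alone wells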
# [23] = growth inhibition of PfATP4-mutant resistant parasites – NITD609-resistant line, SYBR Green, dry powder, dose response (AID 1159571); format: functional, cell-based;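 further: parasites synchronized at ring stage by sorbitol before testing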
# [24] = toxicity to human HepG2 hepatoma cells – cell-based, plate reader, dry powder samples, cytotoxicity control, dose response (AID 1159569); format: functional;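 further: inhibitor potency with signal falling toward the positive control level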
# [25] = Dd2 malaria parasite growth inhibition potency – SYBR Green, dry powder samples, dose response (AID 1159566); format: functional, cell-based;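 further: potency for growth inhibition with lower SYBR green DNA signal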
# [26] = P. falciparum Dd2 growth inhibitors, dose response, SYBR Green, cherry-picked samples (AID 1159567); format: functional, cell-based
# [27] = growth inhibition of yeast DHODH-expressing 3D7 parasites – SYBR Green, dry powder samples, dose response (AID 1159570); format: functional, cell-based;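 further: parasite growth measured after 72 hours of compound exposure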
# [28] = molecular target: T2, Mannose-6-phosphate isomerase (Homo sapiens, UniProt P34949); assay: MPI inhibition at elevated mannose 6-phosphate – biochemical, fluorescence intensity, high mannose 6-phosphate, primary screen (AID 1220)
# T2 sequence (P34949 whole entry): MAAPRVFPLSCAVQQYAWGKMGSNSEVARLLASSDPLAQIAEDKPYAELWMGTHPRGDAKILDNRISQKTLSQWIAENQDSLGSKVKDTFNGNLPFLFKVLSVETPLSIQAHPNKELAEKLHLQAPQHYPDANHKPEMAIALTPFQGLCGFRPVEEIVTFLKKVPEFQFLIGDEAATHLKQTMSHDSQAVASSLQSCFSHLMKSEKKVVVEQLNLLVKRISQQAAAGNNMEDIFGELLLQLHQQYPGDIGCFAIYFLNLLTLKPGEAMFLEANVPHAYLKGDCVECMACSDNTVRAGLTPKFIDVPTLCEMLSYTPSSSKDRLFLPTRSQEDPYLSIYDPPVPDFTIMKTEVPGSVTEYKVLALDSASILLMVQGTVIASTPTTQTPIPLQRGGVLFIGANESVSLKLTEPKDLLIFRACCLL
# [29] = molecular target: T2, Mannose-6-phosphate isomerase; assay: MPI enzyme activity inhibition – biochemical, fluorescence intensity, coupled assay, primary screen (AID 1209)
# Estrogen receptor beta = Estrogen receptor beta (Homo sapiens, UniProt Q92731);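 further: recombinant ER-beta bound to coactivator SRC1 peptide in presence of estradiol agonist; inhibitors block coactivator peptide binding and lower the FRET signal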
# Beta-galactosidase = Beta-galactosidase (Escherichia coli, UniProt Q8VNN2); assay: detection-enzyme interference by beta-gal modulators – biochemical, E. coli enzyme, set 3, artefact control for CCR6 antagonist project, dose response (AID 504712); format: functional
# Nonstructural protein 1 = Nonstructural protein 1 (Influenza A virus, UniProt Q194T2); format: functional, Influenza A virus (A/California/07/2009(H1N1))
# Sequence of Peroxisome proliferator-activated receptor gamma/Nuclear receptor coactivator 2 (P37231 whole entry): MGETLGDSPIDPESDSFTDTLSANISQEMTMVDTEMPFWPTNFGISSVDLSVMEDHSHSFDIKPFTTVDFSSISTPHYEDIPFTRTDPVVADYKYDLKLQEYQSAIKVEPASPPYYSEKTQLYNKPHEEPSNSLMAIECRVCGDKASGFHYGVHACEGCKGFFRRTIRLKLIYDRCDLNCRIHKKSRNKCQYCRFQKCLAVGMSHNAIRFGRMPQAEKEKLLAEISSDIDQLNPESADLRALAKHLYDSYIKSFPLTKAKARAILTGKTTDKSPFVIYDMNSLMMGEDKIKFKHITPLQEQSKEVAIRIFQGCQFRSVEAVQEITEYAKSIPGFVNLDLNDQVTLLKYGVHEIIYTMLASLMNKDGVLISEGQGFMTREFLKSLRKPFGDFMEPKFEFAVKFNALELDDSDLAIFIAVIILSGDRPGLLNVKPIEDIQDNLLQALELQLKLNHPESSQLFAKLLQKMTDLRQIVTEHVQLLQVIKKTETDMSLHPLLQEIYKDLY
# Sequence of Peroxisome proliferator-activated receptor gamma/Nuclear receptor coactivator 2 (Q15596 whole entry, further chain): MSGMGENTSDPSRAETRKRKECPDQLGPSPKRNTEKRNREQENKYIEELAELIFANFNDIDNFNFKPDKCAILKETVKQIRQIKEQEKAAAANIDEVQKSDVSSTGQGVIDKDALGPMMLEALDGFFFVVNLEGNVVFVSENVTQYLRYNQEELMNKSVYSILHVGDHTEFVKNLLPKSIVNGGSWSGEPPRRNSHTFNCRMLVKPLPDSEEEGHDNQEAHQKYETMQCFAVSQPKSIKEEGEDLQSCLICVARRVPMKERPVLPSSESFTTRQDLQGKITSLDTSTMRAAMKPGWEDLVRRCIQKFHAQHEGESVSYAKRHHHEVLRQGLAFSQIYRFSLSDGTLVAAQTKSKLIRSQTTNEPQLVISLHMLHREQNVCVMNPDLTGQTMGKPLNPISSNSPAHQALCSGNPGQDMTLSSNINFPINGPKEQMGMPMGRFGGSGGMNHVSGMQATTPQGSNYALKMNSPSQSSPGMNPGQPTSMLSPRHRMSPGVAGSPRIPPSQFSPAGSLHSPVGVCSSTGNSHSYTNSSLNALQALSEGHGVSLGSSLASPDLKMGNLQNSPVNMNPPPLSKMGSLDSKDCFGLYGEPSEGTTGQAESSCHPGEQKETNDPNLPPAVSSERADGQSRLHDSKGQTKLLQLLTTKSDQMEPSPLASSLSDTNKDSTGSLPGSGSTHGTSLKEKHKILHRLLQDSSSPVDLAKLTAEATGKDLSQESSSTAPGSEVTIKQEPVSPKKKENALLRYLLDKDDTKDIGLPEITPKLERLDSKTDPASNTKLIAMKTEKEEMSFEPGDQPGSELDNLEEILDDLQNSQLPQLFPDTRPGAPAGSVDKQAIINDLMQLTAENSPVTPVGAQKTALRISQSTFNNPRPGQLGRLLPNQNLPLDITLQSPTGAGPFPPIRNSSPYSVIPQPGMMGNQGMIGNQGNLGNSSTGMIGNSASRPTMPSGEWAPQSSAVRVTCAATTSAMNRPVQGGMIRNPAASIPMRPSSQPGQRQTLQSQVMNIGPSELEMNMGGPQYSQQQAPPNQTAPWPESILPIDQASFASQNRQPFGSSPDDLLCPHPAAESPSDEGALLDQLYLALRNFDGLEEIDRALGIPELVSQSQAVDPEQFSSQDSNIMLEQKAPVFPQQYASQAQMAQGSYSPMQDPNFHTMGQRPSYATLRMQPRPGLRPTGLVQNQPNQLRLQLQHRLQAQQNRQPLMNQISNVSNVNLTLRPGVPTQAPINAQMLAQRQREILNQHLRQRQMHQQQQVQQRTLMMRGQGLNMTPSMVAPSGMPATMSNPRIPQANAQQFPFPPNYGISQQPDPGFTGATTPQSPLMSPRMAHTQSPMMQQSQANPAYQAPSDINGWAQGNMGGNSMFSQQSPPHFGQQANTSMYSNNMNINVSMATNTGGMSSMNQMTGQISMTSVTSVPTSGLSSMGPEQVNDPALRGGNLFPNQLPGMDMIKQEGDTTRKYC
# Sequence of Peroxisome proliferator-activated receptor gamma/Nuclear receptor coactivator 3 (P37231 whole entry): as the sequence (P37231 whole entry) above
# Sequence of Peroxisome proliferator-activated receptor gamma/Nuclear receptor coactivator 3 (Q9Y6Q9 whole entry, further chain): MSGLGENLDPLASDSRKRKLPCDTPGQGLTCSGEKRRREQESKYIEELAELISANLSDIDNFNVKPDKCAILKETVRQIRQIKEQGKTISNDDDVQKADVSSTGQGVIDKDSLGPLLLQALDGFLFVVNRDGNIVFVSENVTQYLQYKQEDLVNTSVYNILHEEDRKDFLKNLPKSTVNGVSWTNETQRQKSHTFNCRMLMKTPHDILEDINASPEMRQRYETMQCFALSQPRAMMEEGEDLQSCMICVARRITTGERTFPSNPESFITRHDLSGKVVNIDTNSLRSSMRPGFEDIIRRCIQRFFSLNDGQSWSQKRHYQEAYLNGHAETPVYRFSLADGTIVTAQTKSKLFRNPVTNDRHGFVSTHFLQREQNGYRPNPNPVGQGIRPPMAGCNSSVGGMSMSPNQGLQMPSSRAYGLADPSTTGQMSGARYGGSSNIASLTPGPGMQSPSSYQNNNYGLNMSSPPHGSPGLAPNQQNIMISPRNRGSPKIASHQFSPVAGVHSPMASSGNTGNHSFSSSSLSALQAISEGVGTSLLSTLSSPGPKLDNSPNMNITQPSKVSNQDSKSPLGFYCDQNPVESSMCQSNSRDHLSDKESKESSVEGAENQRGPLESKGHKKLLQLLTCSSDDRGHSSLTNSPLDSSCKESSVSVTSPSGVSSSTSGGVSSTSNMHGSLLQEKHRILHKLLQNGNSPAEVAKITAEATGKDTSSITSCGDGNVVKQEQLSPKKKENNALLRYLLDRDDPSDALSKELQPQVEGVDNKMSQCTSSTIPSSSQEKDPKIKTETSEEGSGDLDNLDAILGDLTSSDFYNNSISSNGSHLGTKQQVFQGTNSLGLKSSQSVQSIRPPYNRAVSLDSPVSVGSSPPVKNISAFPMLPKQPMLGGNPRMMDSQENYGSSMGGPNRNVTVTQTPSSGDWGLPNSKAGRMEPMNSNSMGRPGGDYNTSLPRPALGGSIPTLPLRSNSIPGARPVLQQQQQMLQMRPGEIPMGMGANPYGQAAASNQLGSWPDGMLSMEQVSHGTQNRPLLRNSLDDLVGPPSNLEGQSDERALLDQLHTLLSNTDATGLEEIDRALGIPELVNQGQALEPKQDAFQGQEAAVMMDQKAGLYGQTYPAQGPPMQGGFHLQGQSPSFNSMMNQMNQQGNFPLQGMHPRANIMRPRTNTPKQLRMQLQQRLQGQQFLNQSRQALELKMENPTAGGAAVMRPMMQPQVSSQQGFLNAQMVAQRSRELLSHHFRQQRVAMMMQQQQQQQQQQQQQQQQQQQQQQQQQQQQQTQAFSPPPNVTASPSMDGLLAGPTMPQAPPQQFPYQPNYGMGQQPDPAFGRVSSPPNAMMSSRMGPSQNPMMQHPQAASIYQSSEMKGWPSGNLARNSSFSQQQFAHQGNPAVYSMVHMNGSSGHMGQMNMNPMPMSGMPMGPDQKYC
# Sequence of Beta-galactosidase (Q8VNN2 whole entry): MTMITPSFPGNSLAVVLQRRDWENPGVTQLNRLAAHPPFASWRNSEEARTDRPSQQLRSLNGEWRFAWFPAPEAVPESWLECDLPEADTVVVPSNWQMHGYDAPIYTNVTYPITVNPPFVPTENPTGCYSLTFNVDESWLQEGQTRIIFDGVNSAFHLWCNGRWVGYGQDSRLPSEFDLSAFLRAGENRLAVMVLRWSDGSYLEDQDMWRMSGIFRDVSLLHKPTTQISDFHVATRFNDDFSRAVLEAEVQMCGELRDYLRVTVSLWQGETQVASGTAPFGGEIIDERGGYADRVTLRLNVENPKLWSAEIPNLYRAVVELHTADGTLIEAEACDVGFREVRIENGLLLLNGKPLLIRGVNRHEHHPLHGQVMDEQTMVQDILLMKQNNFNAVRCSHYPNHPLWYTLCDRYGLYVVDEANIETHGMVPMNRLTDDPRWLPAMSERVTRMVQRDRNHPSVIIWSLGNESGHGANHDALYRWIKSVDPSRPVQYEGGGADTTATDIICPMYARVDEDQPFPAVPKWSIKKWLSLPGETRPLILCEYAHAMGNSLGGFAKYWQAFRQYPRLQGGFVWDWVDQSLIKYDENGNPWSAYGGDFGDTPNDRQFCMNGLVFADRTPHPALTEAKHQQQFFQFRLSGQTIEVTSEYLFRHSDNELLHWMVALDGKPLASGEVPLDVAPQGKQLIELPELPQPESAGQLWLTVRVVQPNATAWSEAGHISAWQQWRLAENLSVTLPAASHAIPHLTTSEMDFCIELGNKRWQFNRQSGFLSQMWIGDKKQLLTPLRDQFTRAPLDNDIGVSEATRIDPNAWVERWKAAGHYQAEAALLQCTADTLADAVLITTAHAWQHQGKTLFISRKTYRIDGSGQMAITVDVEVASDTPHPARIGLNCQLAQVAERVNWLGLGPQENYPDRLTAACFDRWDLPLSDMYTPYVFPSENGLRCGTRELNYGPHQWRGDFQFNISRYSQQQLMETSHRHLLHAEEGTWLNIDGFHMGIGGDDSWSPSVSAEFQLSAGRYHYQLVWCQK
smiles,measurement,setting,value
CCCn1c(NC(=O)c2ccc(Br)cc2)nc2ccccc21,EC50,[1],13.6 µM (not active)
same,EC50,[2],9.79 µM (active)
same,EC50,[3],8.96 µM (active)
CCOc1ccc(CCNC(=O)CSc2nn(-c3ccc(C)c(Cl)c3)c(=S)s2)cc1OCC,EC50,[1],> 79.4 µM (not active)
same,EC50,[2],51.9 µM (not active)
same,EC50,[3],> 79.4 µM (not active)
COc1cc(/C=C/c2ccc3cccc(O)c3n2)cc(Br)c1OC,EC50,BJ [4],10.2 µM (active)
same,EC50,HEK293 [5],> 20 µM (inactive)
same,IC50,HEK293 [6],10.4 µM (active)
same,IC50,HEK293 [7],> 20 µM (inactive)
same,EC50,[8],21.1 µM (active)
same,EC50,BJ [9],35.8 µM (active)
same,EC50,[10],9.61 µM (active)
same,EC50,[11],> 20 µM (inactive)
same,IC50,HEK293 [12],4.13 µM (inactive)
same,IC50,HEK293 [13],> 20 µM (inactive)
same,EC50,[14],0.699 µM (active)
same,EC50,BJ [15],21.1 µM (active)
CN(C)c1ccc(/C=C/c2nnnn2-c2ccccc2)cc1,EC50,H4,< 0.1 µM (active)
same,EC50,[16],0.463 µM (active)
same,EC50,[17],0.323 µM (active)
same,EC50,[18],< 0.1 µM (inconclusive)
same,AC50,[19],0.894 µM (active)
same,EC50,[20],0.365 µM (active)
Cc1ccc(NC2=C/C(=N/S(=O)(=O)c3cccs3)c3ccccc3C2=O)cc1C,EC50,H4,< 0.1 µM (active)
same,EC50,[16],0.348 µM (active)
same,EC50,[17],0.43 µM (active)
same,EC50,[18],< 0.1 µM (active)
same,EC50,[20],0.318 µM (active)
same,EC50,[21],0.181 µM (active)
same,IC50,[22],22.3 µM (not active)
same,AC50,INS1,1.56 µM (active)
COc1ccc(CN2C[C@H](C)[C@@H](OC)CN(C)C(=O)c3ccc(NC(=O)c4nc5ccccc5s4)cc3OC[C@@H]2C)cc1,AC50,[23],3.82 µM (active)
same,AC50,[24],67.3 µM (active)
same,AC50,[25],2.64 µM (active)
same,AC50,[26],2.9 µM (active)
same,AC50,[27],5.03 µM (active)
COc1cc(NC(C)=O)c2ncccc2c1[N+](=O)[O-],IC50,[28],> 50 µM (not active)
same,IC50,[29],> 50 µM (not active)
CSc1nc(O)c2c(n1)N=C1CCCC(O)=C1C2c1cccs1 (configuration not stated),IC50,Estrogen receptor beta,11.4 µM (active)
O=[N+]([O-])c1ccc(O)c(/C=N/Nc2nn[nH]n2)c1,IC50,Beta-galactosidase,> 66.6 µM (inactive)
same,IC50,Nonstructural protein 1,1.66 µM (active)
